Literature values, collected in patent EP1269978A2, “Use of bis-resorcinyltriazine derivatives in cosmetic or dermatological preparations” (Beiersdorf AG, priority 2001, dated 2003).

Settings: n-Octanol / Wasser

For `CC1=C(/C=C/C(C)=C/C=C/C(C)=C/CO)C(C)(C)CCC1` [Retinol], the “log P-Wert” value is listed as ~7.
